How the values were obtained:
Assay in all cases: relative viability (nuclei count vs DMSO), 5 days (fraction); higher = more cells survive
SW 1573 = test system: SW 1573
How it was run: (§1)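 Lung cancer cell lines, seeded in 1536-well plates, were treated the following day by pin tool with a single drug or with five library-drug doses (not always all listed) in √10 steps on top of a fixed anchor-drug dose. Cells were fixed and nuclei stained in one step after 5 days, and nuclei were counted. Relative viability is the nuclei count for treated wells divided by that for vehicle wells, reported as medians of duplicate plates.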

COR-L23 = test system: COR-L23
How it was run: as §1

NCI-H3122 = test system: NCI-H3122
How it was run: as §1

LK-2 = test system: LK-2
How it was run: as §1

NCI-H2170 = test system: NCI-H2170
How it was run: as §1

NCI-H1993 = test system: NCI-H1993
How it was run: as §1

NCI-H2009 = test system: NCI-H2009
How it was run: as §1

NCI-H596 = test system: NCI-H596
How it was run: as §1

NCI-H727 = test system: NCI-H727
How it was run: as §1

HARA = test system: HARA
How it was run: as §1

A-427 = test system: A-427
How it was run: as §1

EMC-BAC-2 = test system: EMC-BAC-2
How it was run: as §1

SK-MES-1 = test system: SK-MES-1
How it was run: as §1

NCI-H2228 = test system: NCI-H2228
How it was run: as §1

NCI-H1792 = test system: NCI-H1792
How it was run: as §1

NCI-H1944 = test system: NCI-H1944
How it was run: as §1

HOP-62 = test system: HOP-62
How it was run: as §1

SK-LU-1 = test system: SK-LU-1
How it was run: as §1

NCI-H1793 = test system: NCI-H1793
How it was run: as §1

PC-3 [JPC-3] = test system: PC-3 [JPC-3]
How it was run: as §1

LXF-289 = test system: LXF-289
How it was run: as §1

ABC-1 = test system: ABC-1
How it was run: as §1

Compound: O=C(O)c1ccc(-c2c[nH]c3ncc(-c4ccccc4)cc23)cc1C1CCCC1 + CC1(C)CCC(c2ccc(Cl)cc2)=C(CN2CCN(c3ccc(C(=O)NS(=O)(=O)c4ccc(N[C@H](CCN5CCOCC5)CSc5ccccc5)c(S(=O)(=O)C(F)(F)F)c4)cc3)CC2)C1 [Navitoclax] (partner 0.5 µM)
- relative viability (SW 1573; first compound 0.04 µM): 1.02
- relative viability (SW 1573; first compound 0.1265 µM): 1.22
- relative viability (SW 1573; first compound 0.4 µM): 1.05
- relative viability (SW 1573; first compound 1.265 µM): 0.619
- relative viability (COR-L23; first compound 0.04 µM): 1.01
- relative viability (COR-L23; first compound 0.1265 µM): 1.04
- relative viability (COR-L23; first compound 0.4 µM): 1.09
- relative viability (COR-L23; first compound 1.265 µM): 0.64
- relative viability (NCI-H3122; first compound 0.04 µM): 1.02
- relative viability (NCI-H3122; first compound 0.1265 µM): 1
- relative viability (NCI-H3122; first compound 0.4 µM): 1.03
- relative viability (NCI-H3122; first compound 1.265 µM): 0.976
- relative viability (LK-2; first compound 0.04 µM): 0.9
- relative viability (LK-2; first compound 0.1265 µM): 0.876
- relative viability (LK-2; first compound 0.4 µM): 0.795
- relative viability (LK-2; first compound 1.265 µM): 0.687
- relative viability (NCI-H2170; first compound 0.04 µM): 0.605
- relative viability (NCI-H2170; first compound 0.1265 µM): 0.64
- relative viability (NCI-H2170; first compound 0.4 µM): 0.483
- relative viability (NCI-H2170; first compound 1.265 µM): 0.503
- relative viability (NCI-H1993; first compound 0.04 µM): 0.955
- relative viability (NCI-H1993; first compound 0.4 µM): 0.986
- relative viability (NCI-H1993; first compound 1.265 µM): 0.795
- relative viability (NCI-H2009; first compound 0.04 µM): 1.15
- relative viability (NCI-H2009; first compound 0.1265 µM): 1.1
- relative viability (NCI-H2009; first compound 0.4 µM): 1.15
- relative viability (NCI-H2009; first compound 1.265 µM): 0.969
- relative viability (NCI-H596; first compound 0.04 µM): 0.82
- relative viability (NCI-H596; first compound 0.1265 µM): 1.12
- relative viability (NCI-H596; first compound 0.4 µM): 0.869
- relative viability (NCI-H596; first compound 1.265 µM): 0.884
- relative viability (NCI-H727; first compound 0.04 µM): 0.414
- relative viability (NCI-H727; first compound 0.1265 µM): 0.422
- relative viability (NCI-H727; first compound 0.4 µM): 0.476
- relative viability (NCI-H727; first compound 1.265 µM): 0.515
- relative viability (HARA; first compound 0.04 µM): 1.08
- relative viability (HARA; first compound 0.1265 µM): 1.14
- relative viability (HARA; first compound 0.4 µM): 1.09
- relative viability (HARA; first compound 1.265 µM): 1.04
- relative viability (A-427; first compound 0.04 µM): 1.02
- relative viability (A-427; first compound 0.1265 µM): 0.936
- relative viability (A-427; first compound 0.4 µM): 0.868
- relative viability (A-427; first compound 1.265 µM): 0.708
- relative viability (EMC-BAC-2; first compound 0.04 µM): 1.18
- relative viability (EMC-BAC-2; first compound 0.1265 µM): 1.23
- relative viability (EMC-BAC-2; first compound 0.4 µM): 1.16
- relative viability (EMC-BAC-2; first compound 1.265 µM): 1.22
- relative viability (SK-MES-1; first compound 0.04 µM): 1.19
- relative viability (SK-MES-1; first compound 0.1265 µM): 1.24
- relative viability (SK-MES-1; first compound 0.4 µM): 1.05
- relative viability (SK-MES-1; first compound 1.265 µM): 0.798
- relative viability (NCI-H2228; first compound 0.04 µM): 0.927
- relative viability (NCI-H2228; first compound 0.1265 µM): 0.778
- relative viability (NCI-H2228; first compound 0.4 µM): 0.98
- relative viability (NCI-H2228; first compound 1.265 µM): 0.793
- relative viability (NCI-H1792; first compound 0.04 µM): 0.516
- relative viability (NCI-H1792; first compound 0.1265 µM): 0.728
- relative viability (NCI-H1792; first compound 0.4 µM): 0.661
- relative viability (NCI-H1792; first compound 1.265 µM): 0.588
- relative viability (NCI-H1944; first compound 0.04 µM): 1.01
- relative viability (NCI-H1944; first compound 0.1265 µM): 1.03
- relative viability (NCI-H1944; first compound 0.4 µM): 1.07
- relative viability (NCI-H1944; first compound 1.265 µM): 0.932
- relative viability (HOP-62; first compound 0.04 µM): 1.05
- relative viability (HOP-62; first compound 0.1265 µM): 1.13
- relative viability (HOP-62; first compound 0.4 µM): 1.05
- relative viability (HOP-62; first compound 1.265 µM): 0.76
- relative viability (SK-LU-1; first compound 0.04 µM): 0.982
- relative viability (SK-LU-1; first compound 0.1265 µM): 1.01
- relative viability (SK-LU-1; first compound 0.4 µM): 0.697
- relative viability (SK-LU-1; first compound 1.265 µM): 0.482
- relative viability (NCI-H1793; first compound 0.04 µM): 0.538
- relative viability (NCI-H1793; first compound 0.1265 µM): 0.383
- relative viability (NCI-H1793; first compound 0.4 µM): 0.494
- relative viability (NCI-H1793; first compound 1.265 µM): 0.286
- relative viability (PC-3 [JPC-3]; first compound 0.04 µM): 0.817
- relative viability (PC-3 [JPC-3]; first compound 0.1265 µM): 0.886
- relative viability (PC-3 [JPC-3]; first compound 0.4 µM): 0.7
- relative viability (PC-3 [JPC-3]; first compound 1.265 µM): 0.564
- relative viability (LXF-289; first compound 0.04 µM): 0.936
- relative viability (LXF-289; first compound 0.1265 µM): 0.883
- relative viability (LXF-289; first compound 0.4 µM): 0.658
- relative viability (LXF-289; first compound 1.265 µM): 0.48

Compound: O=C(O)c1ccc(-c2c[nH]c3ncc(-c4ccccc4)cc23)cc1C1CCCC1 + CC(C)C[C@H](NC(=O)[C@H](Cc1ccccc1)NC(=O)c1cnccn1)B(O)O [Bortezomib] (partner 0.002 µM)
- relative viability (SW 1573; first compound 0.04 µM): 1.11
- relative viability (SW 1573; first compound 0.1265 µM): 1.09
- relative viability (SW 1573; first compound 0.4 µM): 0.99
- relative viability (SW 1573; first compound 1.265 µM): 0.722
- relative viability (COR-L23; first compound 0.04 µM): 0.962
- relative viability (COR-L23; first compound 0.1265 µM): 1.16
- relative viability (COR-L23; first compound 0.4 µM): 0.906
- relative viability (COR-L23; first compound 1.265 µM): 0.622
- relative viability (NCI-H3122; first compound 0.04 µM): 0.976
- relative viability (NCI-H3122; first compound 0.1265 µM): 1.01
- relative viability (NCI-H3122; first compound 0.4 µM): 0.984
- relative viability (NCI-H3122; first compound 1.265 µM): 0.986
- relative viability (NCI-H1993; first compound 0.04 µM): 1.18
- relative viability (NCI-H1993; first compound 0.4 µM): 1.14
- relative viability (NCI-H1993; first compound 1.265 µM): 0.871
- relative viability (NCI-H2009; first compound 0.04 µM): 0.997
- relative viability (NCI-H2009; first compound 0.1265 µM): 0.966
- relative viability (NCI-H2009; first compound 0.4 µM): 0.942
- relative viability (NCI-H2009; first compound 1.265 µM): 0.794
- relative viability (NCI-H596; first compound 0.04 µM): 0.935
- relative viability (NCI-H596; first compound 0.1265 µM): 0.982
- relative viability (NCI-H596; first compound 0.4 µM): 1.02
- relative viability (NCI-H596; first compound 1.265 µM): 1.06
- relative viability (NCI-H727; first compound 0.04 µM): 0.788
- relative viability (NCI-H727; first compound 0.1265 µM): 0.99
- relative viability (NCI-H727; first compound 0.4 µM): 0.906
- relative viability (NCI-H727; first compound 1.265 µM): 0.783
- relative viability (HARA; first compound 0.04 µM): 1.05
- relative viability (HARA; first compound 0.1265 µM): 1.28
- relative viability (HARA; first compound 0.4 µM): 1.1
- relative viability (HARA; first compound 1.265 µM): 1.08
- relative viability (ABC-1; first compound 0.04 µM): 0.264
- relative viability (ABC-1; first compound 0.1265 µM): 0.299
- relative viability (ABC-1; first compound 0.4 µM): 0.274
- relative viability (ABC-1; first compound 1.265 µM): 0.251
- relative viability (A-427; first compound 0.04 µM): 0.947
- relative viability (A-427; first compound 0.1265 µM): 0.949
- relative viability (A-427; first compound 0.4 µM): 1.07
- relative viability (A-427; first compound 1.265 µM): 0.849
- relative viability (EMC-BAC-2; first compound 0.04 µM): 1.02
- relative viability (EMC-BAC-2; first compound 0.1265 µM): 1.16
- relative viability (EMC-BAC-2; first compound 0.4 µM): 1.02
- relative viability (EMC-BAC-2; first compound 1.265 µM): 1.04
- relative viability (NCI-H2228; first compound 0.04 µM): 0.908
- relative viability (NCI-H2228; first compound 0.1265 µM): 0.954
- relative viability (NCI-H2228; first compound 0.4 µM): 1.32
- relative viability (NCI-H2228; first compound 1.265 µM): 0.414
- relative viability (NCI-H1792; first compound 0.04 µM): 0.933
- relative viability (NCI-H1792; first compound 0.1265 µM): 1.13
- relative viability (NCI-H1792; first compound 0.4 µM): 1.04
- relative viability (NCI-H1792; first compound 1.265 µM): 0.912
- relative viability (HOP-62; first compound 0.04 µM): 1.01
- relative viability (HOP-62; first compound 0.1265 µM): 0.725
- relative viability (HOP-62; first compound 0.4 µM): 0.93
- relative viability (HOP-62; first compound 1.265 µM): 0.886
- relative viability (SK-LU-1; first compound 0.04 µM): 1.11
- relative viability (SK-LU-1; first compound 0.1265 µM): 1.17
- relative viability (SK-LU-1; first compound 0.4 µM): 1.15
- relative viability (SK-LU-1; first compound 1.265 µM): 0.693
- relative viability (PC-3 [JPC-3]; first compound 0.04 µM): 0.832
- relative viability (PC-3 [JPC-3]; first compound 0.1265 µM): 0.921
- relative viability (PC-3 [JPC-3]; first compound 0.4 µM): 0.9
- relative viability (PC-3 [JPC-3]; first compound 1.265 µM): 0.759
- relative viability (LXF-289; first compound 0.04 µM): 0.969
- relative viability (LXF-289; first compound 0.1265 µM): 0.944
- relative viability (LXF-289; first compound 0.4 µM): 0.8
- relative viability (LXF-289; first compound 1.265 µM): 0.568

From the supplement of paper PMC10307832
